{
  "source": "patent US9193762B2",
  "about": "“Selective inhibitors of prolylcarboxypeptidase” (UNIVERSITY OF MISSISSIPPI, priority 2010, dated 2015)",
  "key": {"[1]": {"molecular_target": "carboxypeptidase B [CPB, EC 3.4.17.2] (Sus scrofa, UniProt P09955)", "sequence (P09955 111-416 limits assumed)": "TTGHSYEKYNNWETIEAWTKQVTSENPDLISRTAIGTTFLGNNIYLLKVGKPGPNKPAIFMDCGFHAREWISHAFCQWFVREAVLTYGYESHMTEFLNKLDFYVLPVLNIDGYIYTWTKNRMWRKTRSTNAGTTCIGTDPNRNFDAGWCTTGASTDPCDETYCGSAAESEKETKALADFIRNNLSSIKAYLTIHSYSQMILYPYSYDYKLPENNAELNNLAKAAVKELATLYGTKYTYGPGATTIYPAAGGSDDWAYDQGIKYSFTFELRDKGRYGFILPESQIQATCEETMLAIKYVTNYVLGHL", "assay": "carboxypeptidase B inhibition", "type": "biochemical"}, "[2]": {"molecular_target": "CPN (hCPN, partially purified from plasma) (Homo sapiens (Human), UniProt P15169)", "sequence (P15169 21-458)": "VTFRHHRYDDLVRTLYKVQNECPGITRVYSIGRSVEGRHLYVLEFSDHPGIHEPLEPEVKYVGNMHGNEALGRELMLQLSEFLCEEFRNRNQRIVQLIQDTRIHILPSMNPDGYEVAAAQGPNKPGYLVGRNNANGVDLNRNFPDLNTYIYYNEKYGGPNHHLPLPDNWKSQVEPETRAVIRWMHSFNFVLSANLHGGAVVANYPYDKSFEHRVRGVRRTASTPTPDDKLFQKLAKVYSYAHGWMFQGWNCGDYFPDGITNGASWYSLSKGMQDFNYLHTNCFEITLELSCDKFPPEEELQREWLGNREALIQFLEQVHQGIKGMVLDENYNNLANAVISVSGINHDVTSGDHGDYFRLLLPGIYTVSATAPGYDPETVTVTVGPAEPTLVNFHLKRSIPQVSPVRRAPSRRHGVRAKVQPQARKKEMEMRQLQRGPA", "sequence (P22792 22-545 partner)": "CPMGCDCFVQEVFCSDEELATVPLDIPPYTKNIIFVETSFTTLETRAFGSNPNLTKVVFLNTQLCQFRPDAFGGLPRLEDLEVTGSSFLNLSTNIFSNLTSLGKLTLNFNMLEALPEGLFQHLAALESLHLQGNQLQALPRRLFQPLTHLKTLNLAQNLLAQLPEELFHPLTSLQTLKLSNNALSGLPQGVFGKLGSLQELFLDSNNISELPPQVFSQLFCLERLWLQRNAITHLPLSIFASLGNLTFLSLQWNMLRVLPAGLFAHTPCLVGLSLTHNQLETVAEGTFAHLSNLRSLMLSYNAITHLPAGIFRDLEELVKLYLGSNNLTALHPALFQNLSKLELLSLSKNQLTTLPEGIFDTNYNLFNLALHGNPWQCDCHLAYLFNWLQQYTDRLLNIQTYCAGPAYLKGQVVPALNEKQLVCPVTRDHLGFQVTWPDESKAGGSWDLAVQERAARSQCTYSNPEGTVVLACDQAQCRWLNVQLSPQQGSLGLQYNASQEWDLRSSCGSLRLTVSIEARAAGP", "assay": "carboxypeptidase CPN, metabolism of hippuryl-lysine", "type": "biochemical", "excerpt": "While BK exerts its vasodilatory effect through the bradykinin B2 receptors (BKB2R), des-Arg9-BK (a substrate of PRCP) mediates its effect via the selective bradykinin B1 receptors (BKB1R). […] Carboxypeptidase A (CPA) is a highly conserved protease, which is present in pancreas and the secretory granules of mast cells. Although its substrate selectivity is different than that of PRCP, both CPA and PRCP can cleave the C-terminal aromatic or aliphatic amino acids of proteins or peptides. […] All values were calculated as percentage of positive control after subtraction of background. […] Commercially available pooled normal human serum was used. The tubes were tightly covered, vortexed for 15 seconds and incubated for 60 min at 37° C. in a shaker water bath. The enzymatic reaction was stopped by addition of 250 μL of 1 M HCl solution and vortexed for 15 seconds. The blanks were stopped immediately after the addition of serum by 250 μL of 1M HCl before incubation. All samples were incubated on ice for 5 min. 1500 μL ethyl acetate was added, vortexed for 30 s and centrifuged for 10 min at 4000 g. 1 mL of the upper layer (ethyl acetate) was transferred into a 5 mL test tube and placed in a boiling water bath for 45-60 min to evaporate the ethyl acetate thoroughly, 3 mL of 1M NaCl solution was added to each tube and vortexed for 30 s. All samples were placed in water bath at 70° C. for 5 min to redissolve all the residual hippuric acid, then vortexed for 30 s. After 15 min of incubation at room temperature, the absorbance of hippuric acid was read at λ=228 nm.\nThe reaction mixture was incubated at 37° C. for 1 h. The reaction was stopped by the addition of 0.5 M HCl."}, "[3]": {"molecular_target": "carboxypeptidase A [CPA, EC 3.4.17.1] (Bos taurus, UniProt P00730)", "sequence (P00730 111-419 limits assumed)": "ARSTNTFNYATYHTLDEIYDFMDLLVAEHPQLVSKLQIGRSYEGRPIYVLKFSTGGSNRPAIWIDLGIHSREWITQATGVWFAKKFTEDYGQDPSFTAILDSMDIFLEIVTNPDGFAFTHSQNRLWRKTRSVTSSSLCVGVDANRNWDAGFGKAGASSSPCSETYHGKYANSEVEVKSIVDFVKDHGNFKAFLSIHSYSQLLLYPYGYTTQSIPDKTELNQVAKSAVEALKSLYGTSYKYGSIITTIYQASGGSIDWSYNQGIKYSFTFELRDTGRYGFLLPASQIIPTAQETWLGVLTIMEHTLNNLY", "assay": "carboxypeptidase A inhibition", "type": "biochemical", "excerpt": "While BK exerts its vasodilatory effect through the bradykinin B2 receptors (BKB2R), des-Arg9-BK (a substrate of PRCP) mediates its effect via the selective bradykinin B1 receptors (BKB1R). […] Carboxypeptidase A (CPA) is a highly conserved protease, which is present in pancreas and the secretory granules of mast cells. Although its substrate selectivity is different than that of PRCP, both CPA and PRCP can cleave the C-terminal aromatic or aliphatic amino acids of proteins or peptides. […] The reaction mixture was incubated at 37° C. for 1 h. The reaction was stopped by the addition of 0.5 M HCl."}, "CPM": {"molecular_target": "CPM (Homo sapiens (Human), UniProt P14384)", "sequence (P14384 18-443, species assumed)": "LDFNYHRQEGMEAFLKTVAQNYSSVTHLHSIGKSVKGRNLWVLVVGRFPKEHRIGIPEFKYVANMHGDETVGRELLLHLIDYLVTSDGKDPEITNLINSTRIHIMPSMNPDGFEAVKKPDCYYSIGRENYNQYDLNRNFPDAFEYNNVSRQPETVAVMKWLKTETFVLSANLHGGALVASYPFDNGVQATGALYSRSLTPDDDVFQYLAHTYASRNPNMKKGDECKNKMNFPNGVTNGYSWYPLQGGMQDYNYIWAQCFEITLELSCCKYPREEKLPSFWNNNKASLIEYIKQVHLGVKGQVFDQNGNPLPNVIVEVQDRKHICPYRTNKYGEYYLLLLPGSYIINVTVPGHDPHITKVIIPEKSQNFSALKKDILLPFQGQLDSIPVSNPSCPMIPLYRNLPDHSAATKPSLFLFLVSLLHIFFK", "assay": "carboxypeptidase CPM, metabolism of hippuryl-lysine", "type": "biochemical"}, "factor XIIa (FXIIa)": {"molecular_target": "factor XIIa (FXIIa) (Homo sapiens (Human), UniProt P00748)", "sequence (P00748 373-615)": "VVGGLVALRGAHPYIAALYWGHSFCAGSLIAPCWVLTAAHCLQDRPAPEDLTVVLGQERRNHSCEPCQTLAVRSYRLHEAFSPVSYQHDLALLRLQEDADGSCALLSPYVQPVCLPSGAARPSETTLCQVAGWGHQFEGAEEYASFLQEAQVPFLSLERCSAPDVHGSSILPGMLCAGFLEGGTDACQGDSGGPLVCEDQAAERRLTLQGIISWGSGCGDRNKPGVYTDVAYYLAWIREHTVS", "assay": "specificity: serine protease FXIIa", "type": "biochemical"}, "[4]": {"assay": "toxicity: 14 metabolic markers in mice", "type": "in vivo", "excerpt": "The blood glucose level was decreased in drug-treated mice (n=3) by 15%."}, "factor XIa (FXIa)": {"molecular_target": "factor XIa (FXIa) (Homo sapiens (Human), UniProt P03951)", "sequence (P03951 388-625)": "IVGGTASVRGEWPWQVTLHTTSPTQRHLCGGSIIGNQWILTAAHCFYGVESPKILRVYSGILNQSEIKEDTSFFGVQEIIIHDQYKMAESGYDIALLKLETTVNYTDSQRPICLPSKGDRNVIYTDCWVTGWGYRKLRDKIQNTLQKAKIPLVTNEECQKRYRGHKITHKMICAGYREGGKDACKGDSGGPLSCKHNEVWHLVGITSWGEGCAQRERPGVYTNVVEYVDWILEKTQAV", "sequence (P03951 19-387 partner)": "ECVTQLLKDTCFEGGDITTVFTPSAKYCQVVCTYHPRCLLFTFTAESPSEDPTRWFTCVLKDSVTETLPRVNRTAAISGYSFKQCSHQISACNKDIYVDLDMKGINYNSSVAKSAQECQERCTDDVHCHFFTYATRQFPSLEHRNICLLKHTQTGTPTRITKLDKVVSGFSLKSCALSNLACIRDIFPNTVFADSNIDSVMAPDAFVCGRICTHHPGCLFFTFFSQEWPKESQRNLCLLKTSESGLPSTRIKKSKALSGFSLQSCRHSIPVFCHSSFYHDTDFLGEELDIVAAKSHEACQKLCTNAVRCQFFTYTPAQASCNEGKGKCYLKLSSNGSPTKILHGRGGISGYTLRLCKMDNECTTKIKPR", "assay": "specificity: serine protease FXIa", "type": "biochemical"}, "α-kallikrein": {"molecular_target": "α-kallikrein (Homo sapiens (Human), UniProt P03952)", "sequence (P03952 391-638)": "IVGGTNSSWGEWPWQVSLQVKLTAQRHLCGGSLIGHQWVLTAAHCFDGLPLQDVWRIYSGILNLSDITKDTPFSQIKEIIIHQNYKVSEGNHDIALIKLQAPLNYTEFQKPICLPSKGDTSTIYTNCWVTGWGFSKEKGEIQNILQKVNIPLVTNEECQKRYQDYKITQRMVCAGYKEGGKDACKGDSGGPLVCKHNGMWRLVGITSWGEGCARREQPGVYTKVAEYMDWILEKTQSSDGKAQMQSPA", "sequence (P03952 20-390 partner)": "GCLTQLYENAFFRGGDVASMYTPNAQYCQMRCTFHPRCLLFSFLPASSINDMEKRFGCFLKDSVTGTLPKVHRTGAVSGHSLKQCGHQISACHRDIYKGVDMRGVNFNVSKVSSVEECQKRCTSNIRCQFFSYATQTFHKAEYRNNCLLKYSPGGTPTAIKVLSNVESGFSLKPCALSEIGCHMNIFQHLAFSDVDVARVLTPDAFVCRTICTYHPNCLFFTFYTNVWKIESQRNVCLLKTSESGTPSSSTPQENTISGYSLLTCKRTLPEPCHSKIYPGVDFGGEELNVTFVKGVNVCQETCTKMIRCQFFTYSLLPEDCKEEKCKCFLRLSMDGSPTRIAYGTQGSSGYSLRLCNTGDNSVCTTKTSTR", "assay": "specificity: serine protease α-kallikrein", "type": "biochemical"}, "HPAEC permeability": {"system": "HPAEC permeability", "assay": "in vitro vascular permeability assay, HPAEC monolayer with HK/PK complex", "type": "cell-based, human", "protocol": "The effect of the inhibitors of PRCP on vascular permeability was assessed using an in vitro vascular permeability assay kit (Chemicon/Millipore, Mass.) according to the manufacturer's protocol. Briefly, collagen coating solution in 0.2×PBS, pH 7.1 was added to the inserts. After incubating for 1 h at room temperature, the inserts were hydrated with cell growth medium for 15 min and seeded with 200 μL of cell suspension (1.0×10^6 HPAEC/mL). The plate was incubated at 37° C. for 24 h until a cell monolayer was formed. The inserts were then treated with cell basal medium (negative control); 1 μg/mL LPS (positive control); 0.1 μM HK/PK complex in the absence or presence of HOE-140 (1 μM) and lisinopril (1 μM, […]) and incubated at 37° C. for 18 h. […] The fluorescence was read at an excitation wavelength of 485 nm and an emission wavelength of 528 nm using BioTek Synergy 2 Multi-Mode Microplate Reader."}, "food intake of mice": {"system": "food intake of mice", "assay": "food intake in fasted mice after i.p. injection", "type": "in vivo", "protocol": "Mice were single housed one week before the experiment. Male mice (n=6 per group; 4 months old) were then food deprived for 24 hours. […] Food intake was measured at 1 hour, 2 hours, 4 hours 8 hours and 24 hours."}, "[5]": {"system": "carotid artery thrombosis in FXII−/− mice", "assay": "FeCl3 carotid artery thrombosis model, FXII-deficient mice"}, "[6]": {"system": "carotid artery thrombosis in wild type C57BL/6 mice", "assay": "FeCl3 carotid artery thrombosis model, wild type mice", "settings": "10 mg/kg IV, 3.5% FeCl3, vs PBS"}, "[7]": {"molecular_target": "recombinant prolylcarboxypeptidase (rPRCP) (Homo sapiens (Human), UniProt P42785)", "sequence (P42785 46-496)": "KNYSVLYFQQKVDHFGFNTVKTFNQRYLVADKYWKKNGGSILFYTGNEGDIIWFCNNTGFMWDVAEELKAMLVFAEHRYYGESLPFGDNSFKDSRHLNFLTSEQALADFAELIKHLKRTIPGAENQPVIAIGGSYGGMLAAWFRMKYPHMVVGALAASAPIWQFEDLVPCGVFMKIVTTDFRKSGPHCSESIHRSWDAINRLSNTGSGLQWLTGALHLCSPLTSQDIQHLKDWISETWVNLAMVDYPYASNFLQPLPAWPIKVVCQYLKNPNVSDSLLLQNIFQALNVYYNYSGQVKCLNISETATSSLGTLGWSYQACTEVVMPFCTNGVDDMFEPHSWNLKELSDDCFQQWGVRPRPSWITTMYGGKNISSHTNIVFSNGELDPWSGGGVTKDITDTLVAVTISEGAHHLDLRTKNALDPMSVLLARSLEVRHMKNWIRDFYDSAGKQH", "assay": "chromogenic enzyme assay of rPRCP with Ala-Pro-p-nitroaniline (APpNA)", "type": "biochemical", "protocol": "Applicants utilized two assays to evaluate the putative PRCP inhibitors; 1.) a chromogenic enzyme assay, that involved the continual monitoring [60 min] for the production of p-nitroaniline derived from rPRCP-catalyzed conversion of Ala-Pro-p-nitroaniline (APpNA) in the presence of inhibitor and; 2.) a cell-based assay measuring the PRCP-dependent PK activation on human pulmonary artery endothelial cells (HPAEC). […] The effects of the inhibitors of PRCP were determined using a previously published method^31. Briefly, rPRCP was incubated in the presence or absence of various PRCP inhibitors in HEPES-carbonated buffer containing 1 mM Ala-Pro-paranitroaniline (APpNA, a PRCP chromogenic substrate). The final volume was 100 μL and the time of incubation was 60 min. […] Generation of free p-nitroaniline from APpNA was determined by monitoring changes in absorbance at 405 nm. Assays were done a minimum of 3 times."}, "[8]": {"system": "PRCP-dependent PK activation on human pulmonary artery endothelial cells (HPAEC)", "protocol": "Applicants utilized two assays to evaluate the putative PRCP inhibitors; 1.) a chromogenic enzyme assay, that involved the continual monitoring [60 min] for the production of p-nitroaniline derived from rPRCP-catalyzed conversion of Ala-Pro-p-nitroaniline (APpNA) in the presence of inhibitor and; 2.) a cell-based assay measuring the PRCP-dependent PK activation on human pulmonary artery endothelial cells (HPAEC). […] Human pulmonary artery endothelial cells (HPAEC) were purchased from Invitrogen (Carlsbad, Calif.) and were cultured as previously described.^20 The cells were grown in Dulbecco's Modified Eagle's Medium (DMEM) overnight in 96 well plates (Costar). […] Gelatin blocking buffer (1% Gelatin) was prepared by adding appropriate amount of 5% gelatin stock to HEPES-carbonated buffer as described above. In the first step, gelatin blocking buffer was used to reduce the non specific binding. As part of this step, the cells were incubated with 1% gelatin buffer for 1 hour."}, "trypsin": {"system": "trypsin", "assay": "specificity: serine protease trypsin", "type": "biochemical"}, "[9]": {"settings": "failed to inhibit at these concentrations"}},
  "note": "Entries after “also recorded” stand apart in the source; their conditions may differ. Where a SMILES comes first, the peptide text is derived from it. The star is where a group is joined. Cbz = O=C(OCc1ccccc1)*",
  "data": [
    {"molecule": "c1cnc2c(c1)ccc1cccnc12", "note": "[1,10-phenanthroline]", "values": [
      {"measurement": "Ki, CPB", "setting": "[1]", "value": "738.5 ηM"},
      {"measurement": "IC50", "setting": "[2]", "value": 1000, "unit": "µM"},
      {"measurement": "Ki", "setting": "[2]", "value": 615, "unit": "µM"},
      {"measurement": "Ki, CPA", "setting": "[3]", "value": "486 ηM"},
      {"measurement": "IC50", "setting": "CPM", "value": 640, "unit": "µM"},
      {"measurement": "Ki", "setting": "CPM", "value": 394, "unit": "µM"}
    ]},
    {"molecule": "CCCCCCCCCCCCNC(=O)[C@@H]1CCCN1C(=O)[C@@H]1CCCN1.Cl", "note": "[RS-33-21, (S)—N-dodecyl-1-((S)-pyrrolidine-2-carbonyl)pyrrolidine-2-carboxamide hydrochloride]", "values": [
      {"measurement": "inhibition of CPB (in words)", "setting": "[1]", "value": "not inhibited"},
      {"measurement": "concentration at which FXIIa was not inhibited", "setting": "factor XIIa (FXIIa); [9]", "value": "> 1.0", "unit": "mM"},
      {"measurement": "inhibition of CPN (in words)", "setting": "[2]; metabolism of hippuryl-lysine", "value": "did not inhibit"},
      {"measurement": "decrease in blood glucose level", "setting": "[4]; drug-treated mice, n=3", "value": 15, "unit": "%"},
      {"measurement": "glucose levels compared with control mice (in words)", "setting": "[4]; mice, Table 16", "value": "relatively low but not statistically significant"},
      {"measurement": "increase in blood amylase compared to sham animals", "setting": "[4]; mice, n=3", "value": 20, "unit": "%"},
      {"measurement": "change in electrolyte levels, body water, markers of kidneys and liver", "setting": "[4]; mice, within 8 h", "value": "failed to cause any significant change"},
      {"measurement": "concentration at which FXIa was not inhibited", "setting": "factor XIa (FXIa); [9]", "value": "> 1.0", "unit": "mM"},
      {"measurement": "concentration at which kallikrein was not inhibited", "setting": "α-kallikrein; [9]", "value": "> 1.0", "unit": "mM"},
      {"measurement": "inhibition of CPA (in words)", "setting": "[3]", "value": "not inhibited"},
      {"measurement": "reduction of cell permeability", "setting": "HPAEC permeability; 100 μM, in the presence of HK/PK (0.1 μM each)", "value": 90, "unit": "%"},
      {"measurement": "BK-induced permeability blocked", "setting": "HPAEC permeability; concentration not given", "value": 100, "unit": "%"},
      {"measurement": "time to start of attenuation of food intake", "setting": "food intake of mice; i.p.", "value": "≤ 1", "unit": "h"},
      {"measurement": "food intake at 1 mg/kg", "setting": "food intake of mice; i.p. 1 mg/kg", "value": "lower food intake, although the reduction was not significant at 2, 4, 8, or 24 h"},
      {"measurement": "food intake at 10 mg/kg", "setting": "food intake of mice; i.p. 10 mg/kg, all time intervals", "value": "Significant declines in food intake"},
      {"measurement": "food intake, dose and time dependence", "setting": "food intake of mice; i.p., 1, 10 or 100 mg/kg, hydrochloride", "value": "induced appetite loss that was dose- and time-dependent; also recorded: inhibited food intake; also recorded: reduced food-intake in mice in a dose- and time-dependent fashion; also recorded: reduced food intake in mice in a dose-dependent and time-dependent manner"},
      {"measurement": "food intake at 100 mg/kg", "setting": "food intake of mice; single i.p. injection 100 mg/kg, 1-24 h, hydrochloride", "value": "Significant declines in food intake; also recorded: reduced food intake"},
      {"measurement": "inhibition of CPM (in words)", "setting": "CPM; metabolism of hippuryl-lysine", "value": "did not inhibit"},
      {"measurement": "antithrombotic effect (in words)", "setting": "[5]; FXII deficient mice", "value": "evidence for an antithrombotic effect"},
      {"measurement": "mice that did not develop occlusion", "setting": "[5]; FXII−/− mice, 10 mg/kg IV, 12.5% FeCl3", "value": "4 of 6"},
      {"measurement": "vessel occlusion", "setting": "[6]", "value": "did not prevent vessel occlusion"},
      {"measurement": "time to arterial occlusion", "setting": "[6]; hydrochloride", "value": "nor prolong the time to arterial occlusion; also recorded: did not observe shortening of carotid artery occlusion times"}
    ]},
    {"molecule": "CCOCCOCCOCCCNC(=O)[C@@H]1CCCN1C(=O)[C@@H]1CCCN1C(=O)OCc1ccccc1", "note": "[RS-33-22, (S)-benzyl-2-((S)-2-((3-(2-(2-ethoxyethoxy)ethoxy)propyl)carbamoyl)pyrrolidine-1-carbonyl) pyrrolidine-1-carboxylate]", "values": [
      {"measurement": "rPRCP inhibition (in words)", "setting": "[7]", "value": "ineffective"},
      {"measurement": "blocking of PK activation on HPAEC (in words)", "setting": "[8]", "value": "ineffective"}
    ]},
    {"molecule": "O=C[C@@H]1CCCN1C(=O)[C@@H]1CCCN1C(=O)OCc1ccccc1", "note": "[Z-Pro-Pro-OH, 1-[1-(benzyloxycarbonyl)-L-prolyl]prolinal, reference compound] (Cbz-Pro-Pro-aldehyde)", "values": [
      {"measurement": "rPRCP inhibition (in words)", "setting": "[7]", "value": "a little effect"},
      {"measurement": "blocking of PK activation on HPAEC (in words)", "setting": "[8]", "value": "a little effect"}
    ]},
    {"molecule": "corn trypsin inhibitor", "values": [
      {"measurement": "IC50", "setting": "factor XIIa (FXIIa)", "value": 0.2, "unit": "µM"},
      {"measurement": "Ki", "setting": "factor XIIa (FXIIa)", "value": 0.12, "unit": "µM"}
    ]},
    {"molecule": "soybean trypsin inhibitor: soybean trypsin inhibitor (SBTI), comparison inhibitor of kallikrein, FXIa and trypsin (protein, UniProt P01070 25-205, looked up) Trypsin inhibitor A: DFVLDNEGNPLENGGTYYILSDITAFGGIRAAPTGNERCPLTVVQSRNELDKGIGTIISSPYRIRFIAEGHPLSLKFDSFAVIMLCVGIPTEWSVVEDLPEGPAVKIGENKDAMDGWFRLERVSDDEFNNYKLVFCPQQAEDDKCGDIGISIDHDDGTRRLVVSKNKPLVVQFQKLDKESL", "values": [
      {"measurement": "IC50", "setting": "trypsin", "value": 0.2, "unit": "µM"},
      {"measurement": "IC50", "setting": "factor XIa (FXIa)", "value": 1, "unit": "µM"},
      {"measurement": "IC50", "setting": "α-kallikrein", "value": 10, "unit": "µM"}
    ]}
  ]
}
